Experimental data from patent US11667651B2, “Aminopyridine derivatives as phosphatidylinositol phosphate kinase inhibitors” (HiberCell, Inc., priority 2017, dated 2023).

Columns and labels:
Type in all cases: biochemical
PIP4K2B = molecular target: T1, PIP4K2B (Homo sapiens, UniProt P78356); test: Trans-FI P kinase assay PIP4K2B (Table 4); conditions: compounds listed under IC50 bins; read-out: Trans-FI P kinase assays: PIP4K2B IC50
T1 construct: made in house; host or cells: E. coli
T1 sequence (P78356 1-416): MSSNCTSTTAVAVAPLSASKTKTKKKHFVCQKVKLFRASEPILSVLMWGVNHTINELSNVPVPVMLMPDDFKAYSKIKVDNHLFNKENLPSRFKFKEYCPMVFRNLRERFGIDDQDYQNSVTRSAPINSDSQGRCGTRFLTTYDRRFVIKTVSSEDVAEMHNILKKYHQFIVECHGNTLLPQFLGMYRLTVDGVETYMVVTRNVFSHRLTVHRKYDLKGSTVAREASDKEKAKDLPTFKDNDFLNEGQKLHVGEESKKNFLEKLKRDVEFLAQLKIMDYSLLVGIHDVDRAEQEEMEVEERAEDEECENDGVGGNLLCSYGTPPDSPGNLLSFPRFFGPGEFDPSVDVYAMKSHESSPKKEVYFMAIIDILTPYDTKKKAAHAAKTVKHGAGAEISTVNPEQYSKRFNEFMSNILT
How it was run: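 Transcreener FI detection (Ex 584/Em 623) of GDP, converted via calibration curve, gives IC50 from residual activity versus log concentration (highest 4.8 μM). Reaction: 80 μM PI5P plus DOPE carrier, 100 μM GTP, 5 nM GST-tagged enzyme, pH 7.3 HEPES with MgCl2 and 5% DMSO, 2 h after 1 h enzyme-compound preincubation at 27° C.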

PIP4K2A [1] = molecular target: T2, PIP4K2A (Homo sapiens, UniProt P48426); test: ADP-glo kinase assay PIP4K 2A (Table 3); set-up: made in house; host or cells: E. coli; conditions: compounds listed under IC50 bins
T2 sequence (P48426 1-406): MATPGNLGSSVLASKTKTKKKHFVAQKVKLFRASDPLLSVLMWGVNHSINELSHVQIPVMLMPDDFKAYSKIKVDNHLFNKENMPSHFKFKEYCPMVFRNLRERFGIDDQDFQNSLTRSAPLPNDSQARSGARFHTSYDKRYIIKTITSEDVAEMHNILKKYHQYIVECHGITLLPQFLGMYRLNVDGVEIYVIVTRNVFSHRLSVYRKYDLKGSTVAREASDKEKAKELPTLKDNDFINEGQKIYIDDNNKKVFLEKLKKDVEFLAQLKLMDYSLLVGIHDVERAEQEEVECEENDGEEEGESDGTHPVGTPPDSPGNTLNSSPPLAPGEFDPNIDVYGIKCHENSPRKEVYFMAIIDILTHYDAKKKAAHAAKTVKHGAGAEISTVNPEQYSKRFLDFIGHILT
How it was run: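 ADP-Glo luminescence detected ADP after 1 h RT reaction started by ATP (60 μM solution) on full-length PIP4K2A (4 nM in mix) and PI(5)P diC8 (100 μM in mix), preceded by 15 min enzyme-compound preincubation in MOPS pH 7.2/25 mM MgCl2. Percent inhibition versus DMSO over 10 concentrations fitted for IC50.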

PIP4K2A [2] = molecular target: T2, PIP4K2A; test: Kinase Assay PIP4K2 A (Table 2); set-up: 4 nM PIP4K2A (full length protein, SignalChem); purchased SignalChem; conditions: compounds listed under IC50 bins
How it was run: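 ADP-Glo luminescent read-out after 1 h room-temperature kinase reaction, started with 60 μM ATP solution following 15 min compound pre-incubation. Enzyme/substrate mix: 4 nM full-length PIP4K2A plus 100 μM PI(5)P diC8; buffer MOPS pH 7.2 with 25 mM MgCl2 and Tween 20. IC50 from 10-point, 3-fold titrations normalized to DMSO.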

| Structure (SMILES) | IC50 (PIP4K2B) [nM] | IC50 (PIP4K2A [1]) [nM] | IC50 (PIP4K2A [2]) [nM] |
| --- | --- | --- | --- |
| CN(C)C/C=C/C(=O)NCC(=O)Nc1cccc(CN2CCN(c3cncc(Nc4ccc(-c5ccc(C(=O)N(C)C)cc5)cn4)c3)C2=O)c1 [Example 227, (E)-4-(6-((5-(3-(3-(2-(4-(dimethylamino)but-2-enamido)acetamido)benzyl)-2-oxoimidazolidin-1-yl)pyridin-3-yl)amino)pyridin-3-yl)-N,N-dimethylbenzamide] | 10 to 100 | 1 to 10 | ≤ 1 |
| CN(C)C/C=C/C(=O)NCC(=O)Nc1ccc(CN2CCN(c3cncc(Nc4ccc(-c5ccc(C(=O)N(C)C)cc5)cn4)c3)C2=O)cc1 [Example 229, (E)-4-(6-((5-(3-(4-(2-(4-(dimethylamino)but-2-enamido)acetamido)benzyl)-2-oxoimidazolidin-1-yl)pyridin-3-yl)amino)pyridin-3-yl)-N,N-dimethylbenzamide] | > 1000 | > 1000 | > 1000 |
| CN(C)C(=O)c1ccc(-c2ccc(Nc3cncc(N4CCN(Cc5ccc(NC(=O)CCc6cccc(N)c6)cc5)C4=O)c3)nc2)cc1 [Example 230, 4-(6-((5-(3-(4-(3-(3-aminophenyl)propanamido)benzyl)-2-oxoimidazolidin-1-yl)pyridin-3-yl)amino)pyridin-3-yl)-N,N-dimethylbenzamide] | 10 to 100 | 1 to 10 | 1 to 10 |
| CC(O)C(=O)N1CCOc2ncc(Nc3ccc(-c4ccc(N5CCCC5=O)cc4)cn3)cc21 (stereo not drawn) [Example 234, 1-(4-(6-((1-(2-hydroxypropanoyl)-2,3-dihydro-1H-pyrido[2,3-b][1,4]oxazin-7-yl)amino)pyridin-3-yl)phenyl)pyrrolidin-2-one] | 10 to 100 | 1 to 10 | 1 to 10 |
| O=C1CCCN1c1ccc(-c2ccc(Nc3cnc4c(c3)N(C(=O)CO)CCO4)nc2)cc1 [Example 235, 1-(4-(6-((1-(2-hydroxyacetyl)-2,3-dihydro-1H-pyrido[2,3-b][1,4]oxazin-7-yl)amino)pyridin-3-yl)phenyl)pyrrolidin-2-one] | 10 to 100 | 10 to 100 | 1 to 10 |
| O=C1C[C@@H](O)CN1c1ccc(-c2ccc(Nc3cnc4c(c3)N3C(=O)CC[C@H]3CO4)nc2)cc1 [Example 236, (S)-2-((5-(4-((R)-4-hydroxy-2-oxopyrrolidin-1-yl)phenyl)pyridin-2-yl)amino)-6,6a,7,8-tetrahydro-9H-pyrido[2,3-b]pyrrolo[1,2-d][1,4]oxazin-9-one] | 10 to 100 | 100 to 1000 | 100 to 1000 |
| O=C1C[C@H](O)CN1c1ccc(-c2ccc(Nc3cnc4c(c3)N3C(=O)CC[C@H]3CO4)nc2)cc1 [Example 237, (S)-2-((5-(4-((S)-4-hydroxy-2-oxopyrrolidin-1-yl)phenyl)pyridin-2-yl)amino)-6,6a,7,8-tetrahydro-9H-pyrido[2,3-b]pyrrolo[1,2-d][1,4]oxazin-9-one] | > 1000 | 100 to 1000 | 100 to 1000 |
| CC(C)(O)C(=O)N1CCOc2ncc(Nc3ccc(-c4ccc(N5CCCC5=O)cc4)cn3)cc21 [Example 238, 1-(4-(6-((1-(2-hydroxy-2-methylpropanoyl)-2,3-dihydro-1H-pyrido[2,3-b][1,4]oxazin-7-yl)amino)pyridin-3-yl)phenyl)pyrrolidin-2-one] | 10 to 100 | 1 to 10 | 1 to 10 |
| O=C(Nc1cncc(Nc2ccc(-c3ccc(N4CCCC4=O)cc3)cn2)c1)c1ccc(=O)[nH]c1 [Example 240, 6-oxo-N-(5-((5-(4-(2-oxopyrrolidin-1-yl)phenyl)pyridin-2-yl)amino)pyridin-3-yl)-1,6-dihydropyridine-3-carboxamide] | 10 to 100 | 100 to 1000 | 10 to 100 |
| CN(C)C(=O)c1ccc(-c2ccc(Nc3cnc4c(c3)N3C(=O)CC[C@H]3CO4)nc2)cc1 [Example 242, (S)-N,N-dimethyl-4-(6-((9-oxo-6a,7,8,9-tetrahydro-6H-pyrido[2,3-b]pyrrolo[1,2-d][1,4]oxazin-2-yl)amino)pyridin-3-yl)benzamide] | 10 to 100 | 1 to 10 | 1 to 10 |
| O=C1CCCN1c1ccc(-c2ccc(Nc3cnc4c(c3)N3C(=O)CC[C@H]3CO4)nc2)cc1F [Example 246, (S)-2-((5-(3-fluoro-4-(2-oxopyrrolidin-1-yl)phenyl)pyridin-2-yl)amino)-6,6a,7,8-tetrahydro-9H-pyrido[2,3-b]pyrrolo[1,2-d][1,4]oxazin-9-one] | 10 to 100 | 1 to 10 | 1 to 10 |
| CCO[C@H]1C[C@@H]1C(=O)Nc1cncc(Nc2ccc(-c3ccc(N4CCCC4=O)cc3)cn2)c1 [Example 252, (1S,2S)-2-ethoxy-N-(5-((5-(4-(2-oxopyrrolidin-1-yl)phenyl)pyridin-2-yl)amino)pyridin-3-yl)cyclopropane-1-carboxamide] | 10 to 100 | 10 to 100 | 1 to 10 |

Now from value to compound:

| IC50 (PIP4K2B) [nM] | IC50 (PIP4K2A [1]) [nM] | IC50 (PIP4K2A [2]) [nM] | Structure (SMILES) |
| --- | --- | --- | --- |
| > 1000 | > 1000 | > 1000 | CN(C)C(=O)c1ccc(-c2ccc(Nc3cncc(N4CCN(Cc5ccc(NC(=O)CN)cc5)C4=O)c3)nc2)cc1 [Example 228, 4-(6-((5-(3-(4-(2-aminoacetamido)benzyl)-2-oxoimidazolidin-1-yl)pyridin-3-yl)amino)pyridin-3-yl)-N,N-dimethylbenzamide] |
| 10 to 100 | 1 to 10 | 1 to 10 | CN(C)C/C=C/C(=O)Nc1cccc(CCC(=O)Nc2ccc(CN3CCN(c4cncc(Nc5ccc(-c6ccc(C(=O)N(C)C)cc6)cn5)c4)C3=O)cc2)c1 [Example 231, (E)-4-(6-((5-(3-(4-(3-(3-(4-(dimethylamino)-but-2-enamido)phenyl)propanamido)benzyl)-2-oxoimidazolidin-1-yl)pyridin-3-yl)amino)pyridin-3-yl)-N,N-dimethylbenzamide] |
| 10 to 100 | 10 to 100 | 1 to 10 | CN(C)C(=O)c1ccc(-c2ccc(Nc3cncc(NC(=O)c4cccc5[nH]cnc45)c3)nc2)cc1 [Example 232, N-(5-((5-(4-(dimethylcarbamoyl)phenyl)pyridin-2-yl)amino)pyridin-3-yl)-1H-benzo[d]imidazole-7-carboxamide] |
| 10 to 100 | 1 to 10 | 1 to 10 | O=C1CCCN1c1ccc(-c2ccc(Nc3cnc4c(c3)N(C(=O)C3(O)CC3)CCO4)nc2)cc1 [Example 233, 1-(4-(6-((1-(1-hydroxycyclopropane-1-carbonyl)-2,3-dihydro-1H-pyrido[2,3-b][1,4]oxazin-7-yl)amino)pyridin-3-yl)phenyl)pyrrolidin-2-one] |
| 10 to 100 | 10 to 100 | 1 to 10 | COc1cncc(C(=O)Nc2cncc(Nc3ccc(-c4ccc(N5CCCC5=O)cc4)cn3)c2)c1 [Example 239, 5-methoxy-N-(5-((5-(4-(2-oxopyrrolidin-1-yl)phenyl)pyridin-2-yl)amino)pyridin-3-yl)nicotinamide] |
| 10 to 100 | 100 to 1000 | 10 to 100 | COCCC(=O)N1CCN(c2cncc(Nc3ccc(-c4ccc(N5CCCC5=O)cc4)cn3)c2)CC1 [Example 241, 1-(4-(6-((5-(4-(3-methoxypropanoyl)piperazin-1-yl)pyridin-3-yl)amino)pyridin-3-yl)phenyl)pyrrolidin-2-one] |
